According to US20090137499A1, “BENZYLPHENYL GLUCOPYRANOSIDE DERIVATIVE” (priority 2006, published 2009):
pIC50: −log10 of the molar value.

What follows are compounds tested against T1, human SGLT2 (Homo sapiens, UniProt P31639) (assay: Determination of SGLT2 inhibiting activity using human SGLT2 expressing cell ([14C]-α-methyl-D-glucopyranoside uptake)). Conditions: HEK-SGLT2 cells, 1 mM [14C]-α-methyl-D-glucopyranoside, 37° C., 30 min.
T1 construct: expressed in transfected cells
T1 sequence (P31639 1-672): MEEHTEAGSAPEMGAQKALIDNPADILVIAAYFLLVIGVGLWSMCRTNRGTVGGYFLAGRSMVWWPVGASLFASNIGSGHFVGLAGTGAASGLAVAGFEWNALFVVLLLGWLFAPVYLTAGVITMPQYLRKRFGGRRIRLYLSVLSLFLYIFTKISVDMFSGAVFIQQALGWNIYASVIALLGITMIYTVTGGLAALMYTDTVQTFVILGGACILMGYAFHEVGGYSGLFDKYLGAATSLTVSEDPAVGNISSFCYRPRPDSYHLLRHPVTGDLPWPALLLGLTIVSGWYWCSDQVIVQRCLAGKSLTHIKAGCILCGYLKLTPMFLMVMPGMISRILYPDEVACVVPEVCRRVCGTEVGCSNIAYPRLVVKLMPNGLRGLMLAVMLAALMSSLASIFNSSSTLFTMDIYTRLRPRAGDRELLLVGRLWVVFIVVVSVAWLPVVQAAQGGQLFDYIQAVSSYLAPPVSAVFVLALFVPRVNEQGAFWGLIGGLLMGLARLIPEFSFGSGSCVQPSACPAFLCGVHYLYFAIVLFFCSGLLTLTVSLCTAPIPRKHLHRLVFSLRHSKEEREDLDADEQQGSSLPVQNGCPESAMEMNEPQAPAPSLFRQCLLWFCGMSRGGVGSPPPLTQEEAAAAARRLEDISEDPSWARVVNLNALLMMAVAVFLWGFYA
Assay type: cell-based
Method: Determination of SGLT2 Inhibiting Activity Using Human SGLT2 Expressing Cell
1) Preparation of Vector Expressing Human SGLT2 cDNA in Animal Cell
Amplification was performed by PCR using human SGLT2 cDNA clone (Origene: Clone Number, TC303267; GenBank accession number, NM 003041) as a template. The sense oligonucleotide primer for PCR was 5′-[…]-3′ (Primer 3: SEQ ID NO: 3 in the sequence listing),
and the antisense oligonucleotide primer was 5′-[…]-3′ (Primer 4: SEQ ID NO: 4 in the sequence listing). The PCR product was subjected to agarose electrophoresis, then a target DNA fragment was recovered from a single band corresponding to 2037 bases, digested with restriction enzymes HindIII and XhoI, and introduced into the HindIII/XhoI site of vector pCMV-Script (Stratagene) to obtain SGLT2 expressing plasmid pCMV-SGLT2. A HindIII/XhoI fragment was excised from pCMV-SGLT2 and introduced into the BamHI/XhoI site of pENTR1A (Gateway, Invitrogen) to prepare pENTR-SGLT2. Retrovirus vector pLPCX (Clontech) into which Gateway Vector Conversion System Cassette A (Invitrogen) was introduced was used as the destination plasmid to prepare SGLT2 expressing retrovirus vector pLPCX-SGLT2.
2) Establishment of Human SGLT2 Expressing Cell
The retrovirus pLPCX-SGLT2 obtained in 1) was transfected into integrin αvβ3 expressing HEK-293 cells, the cells were treated with antibiotic G418 (brand name, Geneticin: Invitrogen) and puromycin (Clontech) to obtain HEK-SGLT2 cells stably expressing the target vector having resistance. The stably expressing cells were cultured and maintained in DMEM medium containing […] G418, […] puromycin, 3 mM KGT-1075, and 10% FBS.
3) Determination of SGLT2 Inhibiting Activity
HEK-SGLT2 cells were suspended at a density of 10^6 cells/mL in DMEM medium containing 250 mg/mil G418, 1 mg/ml puromycin, and 10% FBS, and 100 μL was seeded in each well of a type 1 collagen-coated 96-well culture plate (Corning). On the following day, the medium was replaced with a sugar uptake buffer (10 mM HEPES [pH 7.5], 5 mM Tris-HCl [pH 7.5], 140 mM NaCl, 2 mM KCl, 1 mM CaCl2, 1 mM MgCl2), and the cells were cultured with 1 mM [^14C]-α-methyl-D-glucopyranoside (0.1 mCi) and a test compound at 37° C. for 30 min, and then washed 3 times with a washing buffer (10 mM HEPES (pH 7.5), 5 mM Tris-HCl (pH 7.5), 140 mM choline chloride, 2 mM KCl, 1 mM CaCl2, 1 mM MgCl2). 100 μL of liquid scintillation cocktail (brand name, Supermix: Perkin-Elmer) was added to each well of the 96-well plate and stirred for 10 min, and then radioactivity was determined with micro β (Perkin-Elmer), a type of liquid scintillation counter. The value obtained by deducting the radioactivity in the presence of an excess amount of an SGLT2 inhibiting compound as the background from each measured value was taken as the sugar uptake activity, the inhibition rate (%) was calculated from the control sugar uptake activity obtained without using a test compound and the sugar uptake activity obtained using a test compound having a predetermined concentration, and the concentrations of the test compound at which the sugar uptake activity was inhibited by 50% were assessed.
Work on `COc1ccc(Cc2cc(CO)cnc2O[C@@H]2O[C@H]([C@@H](C)O)[C@@H](O)[C@H](O)[C@H]2O)cc1` [Example 38, 3-(4-Methoxybenzyl)-5-hydroxymethylpyridin-2-yl 7-deoxy-D-glycero-β-D-gluco-heptopyranoside] yielded a pIC50 of 7.77.
`COc1ccc(Cc2c(C)cc(C)cc2O[C@@H]2O[C@H]([C@@H](C)O)[C@@H](O)[C@H](O)[C@H]2O)cc1` [Example 77, 3,5-Dimethyl-2-(4-methoxybenzyl)phenyl 7-deoxy-D-glycero-β-D-gluco-heptopyranoside] showed a pIC50 of 7.60.
`C[C@@H](O)[C@H]1O[C@@H](Oc2cc(CO)ccc2Cc2ccc(CCCO)cc2)[C@H](O)[C@@H](O)[C@@H]1O` [Example 68, 5-Hydroxymethyl-2-[4-(3-hydroxypropyl)benzyl]phenyl 7-deoxy-D-glycero-β-D-gluco-heptopyranoside] was tested, and the pIC50 was 7.92.
`CC(C)Oc1ccc(Cc2c(F)cc(CO)cc2O[C@@H]2O[C@H]([C@@H](C)O)[C@@H](O)[C@H](O)[C@H]2O)cc1` [Example 75, 3-Fluoro-5-hydroxymethyl-2-(4-isopropoxybenzyl)phenyl 7-deoxy-D-glycero-β-D-gluco-heptopyranoside] gave a pIC50 of 7.42.
Compound `COc1ccc(Cc2ccc(CO)cc2O[C@@H]2O[C@H]([C@@H](C)O)[C@@H](O)[C@H](O)[C@H]2O)cc1` [Example 9, 2-(4-Methoxybenzyl)-5-hydroxymethylphenyl 7-deoxy-D-glycero-β-D-gluco-heptopyranoside] has a pIC50 of 8.03.
Compound `COc1ccc(Cc2c(C)cc(C)cc2O[C@@H]2O[C@H]([C@@H](C)O)[C@@H](O)[C@H](O)[C@H]2O)cc1F` [Example 69, 2-(3-Fluoro-4-methoxybenzyl)-3,5-dimethylphenyl 7-deoxy-D-glycero-β-D-gluco-heptopyranoside] has a pIC50 of 7.40.
Work on `C[C@@H](O)[C@H]1O[C@@H](Oc2cc(CO)cc(F)c2Cc2ccc(OC3CC3)cc2)[C@H](O)[C@@H](O)[C@@H]1O` [Example 63, 2-(4-Cyclopropoxybenzyl)-3-fluoro-5-hydroxymethyl-phenyl 7-deoxy-D-glycero-β-D-gluco-heptopyranoside] yielded a pIC50 of 7.47.
`COc1ccc(Cc2c(F)cc(CO)cc2O[C@@H]2O[C@H]([C@@H](C)O)[C@@H](O)[C@H](O)[C@H]2O)cc1` [Example 84, 3-Fluoro-5-hydroxymethyl-2-(4-methoxybenzyl)phenyl 7-deoxy-D-glycero-β-D-gluco-heptopyranoside] gave a pIC50 of 8.20.
Compound `C[C@@H](O)[C@H]1O[C@@H](Oc2cc(CO)cc(F)c2Cc2ccc(C3CC3)cc2)[C@H](O)[C@@H](O)[C@@H]1O` [Example 88, 2-(4-Cyclopropylbenzyl)-3-fluoro-5-hydroxymethylphenyl 7-deoxy-D-glycero-β-D-gluco-heptopyranoside] has a pIC50 of 7.72.
Compound `Cc1cc(CO)cc(O[C@@H]2O[C@H]([C@@H](C)O)[C@@H](O)[C@H](O)[C@H]2O)c1Cc1ccc(OC2CC2)cc1` [Example 96, 2-(4-Cyclopropoxybenzyl)-5-hydroxymethyl-3-methyl-phenyl 7-deoxy-D-glycero-β-D-gluco-heptopyranoside] has a pIC50 of 7.44.
For `CCc1ccc(Cc2ccc(N)cc2O[C@@H]2O[C@H](C(C)O)[C@@](C)(O)[C@H](O)[C@H]2O)cc1` (stereo partly drawn) [Example 41, 5-Amino-2-(4-ethylbenzyl)phenyl 4-C-methyl-7-deoxy-glycero-β-D-gluco-heptapyranoside], the pIC50 was 7.85.
